Measurements taken from patent US20140205583A1, “USE OF PLP WITH PEG-rMETase IN VIVO FOR ENHANCED EFFICACY” (AntiCancer, Inc., priority 2003, published 2014).

Columns and labels:
[1] = Pharmacokinetics: plasma enzyme activity following intravenous injection of naked and PEGylated rMETase in mice; type: in vivo, Athymic nude (nu/nu) mice; settings: for Plasma half-life in mice: 80 U i.v. per mouse, calculated from plasma enzyme activity-time profiles; for Plasma enzyme activity detectable until: 80 units per mouse i.v.
Protocol: rMETase activity was determined from α-ketobutyrate produced from L-methionine according to the method of Tanaka, H., et al., Biochemistry (1977) 16:100-106, with slight modification. 0.5 ml of sample diluted in 100 mM potassium phosphate buffer pH 8.0, containing 0.01% DTT, 1 mM EDTA Nae, 10 μM PLP and 0.05% Tween 80, was mixed with 0.5 ml of substrate solution containing 100 mM potassium phosphate buffer, pH 8.0, containing 25 mM L-methionine and 10 μM PLP in a glass test tube. The reaction mixture was vortexed immediately and incubated at 37° C. without shaking for precisely 10 minutes. The reaction was stopped by adding 0.5 ml of 50% TCA. The suspension was centrifuged at 13,000 rpm for 2 minutes. The supernatant (0.5 ml) was collected in a glass tube containing 1 ml 1 M acetate buffer, pH 5.0. Then, 0.4 ml MBTH solution containing 0.1% 3-methyl-2-benzothiazolinonehydrazone dihydrochloride monohydrate (Wako Pure Chemical, Osaka, Japan) was added to the tube, mixed well and incubated at 50° C. for 30 minutes. The absorbance of the reaction mixture was measured at 320 nm. The assay was carried out in triplicate. ΔE was calculated by subtracting the average absorbance of blanks from the average absorbance of the reaction mixture. The enzyme activity was calculated by the following equation: Activity (U/ml)=0.548 (1.07+2.2ΔE) ΔE. One unit of enzyme is defined as the amount of enzyme which produced 1 μM of α-ketobutyrate per minute at an infinite concentration of L-methionine.
(§1) Athymic nude (nu/nu) mice aged 4 weeks (20-25 g) were used for the study with 4 mice per group. Osmotic mini-pumps filled with 250 μl PLP (0.5 g/ml) were implanted subcutaneously. Twenty-four hours after pump implantation, 80 units of native rMETase or PEG-rMETase in 0.5 ml PBS, pH 7.4, were injected via the tail vein in mice with or without PLP pumps. 400 μl of blood was collected from the retroorbital plexus of each animal using heparinized capillary tubes. Blood was collected prior to injection, and 1, 2, 4, 8, 24, 48, 72, 96 and 120 hours post injection. The plasma was separated and stored in small aliquots at −80° C. The plasma enzyme activity, methionine concentration and PLP level in the plasma, collected at the different time points, were measured as described above.
The mice were injected intravenously with 80 U naked or the indicated PEGylated rMETase. Blood samples were collected at different time points and measured for plasma enzyme activity as described above.
(§2) 80 U of naked or PEGylated rMETase were injected i.v. in each mouse with or without PLP supplementation. Blood samples were collected at different time points and measured for enzyme activity and methionine concentration as described in the Materials and Methods. Plasma half-life was calculated from the plasma enzyme concentration-time profiles (FIG. 4). Maximum period of methionine depletion below 5 μM is calculated from the plasma methionine levels in FIGS. 5 and 7.

plasma methionine = assay: Plasma methionine depletion following intravenous injection of naked and PEGylated rMETase, with or without PLP pump; type: in vivo, Athymic nude (nu/nu) mice; settings: for Max. Period of MET depletion below 5 μM, PLP+: with PLP supplementation from s.c. mini-osmotic pump; for Period of plasma methionine depletion below 5 μM relative to naked rMETase: fold longer than naked rMETase; for PLP dependence (ratio of plasma methionine PLP− versus PLP+): ratios at various time points, FIG. 8
Protocol: The methionine level in the plasma was measured by pre-column derivitization, followed by HPLC separation (Jones, B. N., and Gilligan, J. P., J. Chromatogr. (1983) 266:471-482). Briefly, 10 μl of plasma sample or methionine standard was precipitated with 30 μl of acetonitrile, followed by centrifugation at 10,000 rpm for 5 minutes. 10 μl of the supernatant was mixed with 5 μl of a fluoraldehyde derivative reagent, o-phthaldialdehyde, for 1 minute at room temperature, followed by addition of 150 μl of 0.1 M sodium acetate, pH 7.0. 20 μl of the reaction mixture was loaded on a reversed-phase Supelcosil™ LC-18DB column (25 cm×[…], particle size 5 μm (Supelco, Bellefonte, Pa., USA). The amino acid derivatives were separated by using a gradient elution of 40-60% solution B (Methanol) in solution A (tetrahydrofuran/methanol/0.1M sodium acetate. pH 7.2; 5/95/900) at a flow rate of 1.5 ml/minute. A fluorescence spectrophotometer was used for detection: excitation at 350 nm and emission at 450 nm. The plasma methionine was identified by the retention time of a methionine standard solution and quantitated according to a methionine standard curve.
as §1, §2
The mice were injected i.v. with 80 U of naked or the indicated PEGylated rMETase. Blood samples were collected at different time points and measured for plasma methionine concentration as described above.
In these experiments, 80 U of naked or PEGylated rMETase was injected intravenously in animals with and without PLP supplementation from implanted mini-osmotic pumps. Blood samples were taken at different time points and measured for plasma methionine concentration. […] The plasma methionine levels depleted by the three PEGylated rMETase conjugates were maintained below 2 μM for 48 hours and below 4 μM for 72 hours in case of PEG/rMETase 120 with PLP supplementation (Table 3). At 120 hours after injection of PEG/rMETase, the plasma methionine level depleted by PEG/rMETase 30, PEG/rMETase 60 and PEG/rMETase 120 still remained at 40%, 57% and 22% of normal baseline, respectively (Table 3).

[2] = system: plasma anti-rMETase specific antibody; assay: Plasma anti-rMETase antibody titer by sandwich ELISA after immunization with FCA; type: in vivo, BALB/c male mice; settings: mice immunized i.p. with 200 μg in FCA; figures in parentheses = numbers of mice
Protocol: BALB/c male mice were grouped randomly at 5 per group. Each mouse received three i.p. injections of 0.2 ml (200 μg) naked or PEG-rMETase emulsified in Freund's complete adjuvant (FCA) at weekly intervals. Two weeks following the last injection, a booster injection of the rMETase or PEG-rMETase was given to each mouse. Blood samples were collected two weeks after the booster injection, and plasma was separated and stored at −80° C.
Plasma anti-rMETase antibody was measured using a sandwich ELISA technique. 100 μl 200 μg/ml rMETase in 0.1 M carbonate coating buffer, pH 9.5, was added to each well of a 96-well microplate and incubated at 4° C. overnight. The plate was washed three times with PBS washing buffer, pH 7.4, containing 0.05% Tween-20, and blocked for 2 hours at room temperature with 200 μl of PBS assay buffer, pH 7.4, containing 10% FBS. After washing three times, 100 μl of 10-fold serial dilutions of the plasma samples in PBS assay buffer were added to appropriate wells and incubated for 2 hours at room temperature, followed by washing. 100 μl optimally diluted goat anti-mouse IgG and IgM subtypes conjugated with horseradish peroxidase (SIGMA, St. Louis, Mo., USA) were added to each well. The plate was incubated for 1 hour at room temperature and washed three times. 100 μl substrate solution containing O-phenylenediamine dihydrochloride (OPD) and hydrogen peroxide (SIGMA, St. Louis, Mo., USA) were added to each well, followed by 30 min incubation at room temperature. 50 μl 2N sulfuric acid were added to each well to stop the color reaction. The absorbance of each well was measured at 492 nm. The antibody titer was determined as the highest plasma dilution at which the extinction at 492 nm generated in the well of the immune plasma exceeded twice the extinction generated in those wells with negative control plasma.
IgG and IgM anti-rMETase antibody titers of the plasma of the mice immunized with naked or indicated PEGylated rMETase in the presence of FCA were determined using ELISA as described in the Materials and Methods. […]

[3] = literature comparison; cited from earlier work
cancer cell lines = settings: wide variety of cancer cell lines, in vitro; cited from earlier work
[4] = 80 U i.v., with PLP supplementation
[5] = 80 U i.v., without PLP supplementation

Substance | Plasma half-life in mice [1] [h] | Max. Period of MET depletion below 5 μM, PLP+ (plasma methionine; 80 U i.v.) [h] | Plasma methionine level at 120 hours after injection, of normal baseline (plasma methionine; [4]) [%] | Max. Period of MET depletion below 5 μM, PLP− (plasma methionine; [5]) [h] | Period of plasma methionine depletion below 5 μM relative to naked rMETase (plasma methionine; [5]) [fold] | Plasma anti-rMETase specific IgM antibody titer [2] | Plasma half-life [3] [h] | Plasma methionine level reached within 1 hour (plasma methionine; 80 U i.v., baseline 40 μM, without PLP supplementation) | IC50 in cancer cell lines compared to non-neoplastic cells (cancer cell lines) | Plasma enzyme activity detectable until [1] [h] | PLP dependence (ratio of plasma methionine PLP− versus PLP+) (plasma methionine) | Plasma methionine level maintained for 72 hours (plasma methionine; [4])
PEG/rMETase 30: rMETase conjugated with MEGC-PEG-5000 at molar ratio PEG/rMETase of 30/1 | 12 | 48 | 40 | 8 | 2 | 10^−3 (5) | – | – | – | – | – | –
PEGylated rMETase with M-SPA-PEG: Literature rMETase PEGylated with M-SPA-PEG, comparison for half-life | – | – | – | – | – | – | 0.667 | – | – | – | – | –
L-methionine α-deamino-γ-mercaptomethane lyase [Naked rMETase] | – | 4 | – | 4 | – | – | – | less than 5 μM | several-fold less | – | – | –
PEG/rMETase 60: rMETase conjugated with MEGC-PEG-5000 at molar ratio PEG/rMETase of 60/1 | 18 | 48 | 57 | 24 | 6 | 10^−3 (5) | – | – | – | 72 | lesser PLP dependence than PEG/rMETase 30 | –
PEG/rMETase 120: rMETase conjugated with MEGC-PEG-5000 at molar ratio PEG/rMETase of 120/1 | 38 | 72 | 22 | 48 | 12 | 10^−3 (5) | – | – | – | 72 | lesser PLP dependence than PEG/rMETase 30 | below 4 μM
